# Test results reported in ChEMBL document CHEMBL1127345, “Synthesis, binding properties, and 18F labeling of fluorocarazolol, a high-affinity beta-adrenergic receptor antagonist” (J Med Chem, 1994).
# Tests used:
# Type in all cases: physicochemical
# [1] = The octanol-water partition coefficient at pH 10.0
# [2] = The octanol-water partition coefficient at pH 10.8
# [3] = The octanol-water partition coefficient at pH 4.5
# [4] = The octanol-water partition coefficient at pH 5.8
# [5] = The octanol-water partition coefficient at pH 6.4
# [6] = The octanol-water partition coefficient at pH 7.0
# [7] = The octanol-water partition coefficient at pH 7.5
# [8] = The octanol-water partition coefficient at pH 9.4
# [9] = The octanol-water partition coefficient at pH 3.3
# [10] = The octanol-water partition coefficient at pH 8.3
SMILES,logD [1],logD [2],logD [3],logD [4],logD [5],logD [6],logD [7],logD [8],logD [9],logD [10]
CC(C)NCC(O)COc1cccc2[nH]c3ccccc3c12 (stereo not given) [CARAZOLOL],2.5,2.43,0.3,0.42,0.68,1.07,1.51,2.44,0.17,2.13
CC(CF)NCC(O)COc1cccc2[nH]c3ccccc3c12 (stereo not given) [FLUOROCARAZOLOL],2.81,2.81,0.38,1.11,1.76,2.2,2.48,2.8,0.03,2.7
